Source: paper PMC6625793, “The autophagic membrane tether ATG2A transfers lipids between membranes” (eLife, 2019)

Tests used:
Assay type in all cases: binding
WIPI4 = molecular target: T1, WIPI4 (Homo sapiens, UniProt Q9Y484); test: liposome flotation, western blot; conditions: 20 mM HEPES pH 7.5, 150 mM NaCl, 1 mM TCEP; LUVs with 5% PI3P versus without PI3P
T1 construct: gene WDR45; N-terminal 10xHis tag kept in flotation assays; expressed in Sf9 insect cells
T1 sequence (Q9Y484 1-360): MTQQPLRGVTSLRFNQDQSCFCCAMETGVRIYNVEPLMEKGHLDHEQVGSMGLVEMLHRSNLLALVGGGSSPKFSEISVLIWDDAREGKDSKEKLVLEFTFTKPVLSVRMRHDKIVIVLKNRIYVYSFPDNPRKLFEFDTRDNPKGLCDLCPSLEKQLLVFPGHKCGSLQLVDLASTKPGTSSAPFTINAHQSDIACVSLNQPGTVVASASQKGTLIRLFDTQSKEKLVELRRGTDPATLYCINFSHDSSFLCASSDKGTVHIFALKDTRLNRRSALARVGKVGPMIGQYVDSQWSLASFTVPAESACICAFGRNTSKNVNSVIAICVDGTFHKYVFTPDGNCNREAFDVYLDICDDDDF

WIPI1 = molecular target: T2, WIPI1 (Homo sapiens, UniProt Q5MNZ9); test: liposome flotation, western blot; conditions: 20 mM HEPES pH 7.5, 150 mM NaCl, 1 mM TCEP; LUVs with 5% PI3P versus without PI3P
T2 construct: residues 1-446; N-terminal 6xHis tag kept in flotation assays; expressed in Sf9 insect cells
T2 sequence (Q5MNZ9 1-446): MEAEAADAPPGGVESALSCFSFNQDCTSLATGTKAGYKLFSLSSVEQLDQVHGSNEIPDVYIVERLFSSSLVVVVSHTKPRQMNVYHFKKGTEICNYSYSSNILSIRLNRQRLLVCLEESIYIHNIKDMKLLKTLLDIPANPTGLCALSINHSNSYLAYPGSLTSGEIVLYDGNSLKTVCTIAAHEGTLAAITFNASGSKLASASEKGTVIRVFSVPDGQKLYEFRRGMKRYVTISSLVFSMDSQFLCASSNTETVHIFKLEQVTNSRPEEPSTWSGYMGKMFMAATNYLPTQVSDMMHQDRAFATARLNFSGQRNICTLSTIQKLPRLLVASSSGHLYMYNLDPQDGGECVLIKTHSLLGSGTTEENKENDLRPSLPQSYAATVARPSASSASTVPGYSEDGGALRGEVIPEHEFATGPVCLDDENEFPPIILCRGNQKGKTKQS

ATG2A = molecular target: T3, ATG2A (Homo sapiens, UniProt Q2TAZ0); test: lipid extraction from LUVs, Nycodenz flotation, native PAGE fluorescence; conditions: 20 mM HEPES pH 7.5, 150 mM NaCl, 1 mM TCEP; ~22 °C; 20% NBD-PE/80% DOPC LUVs; labelled compound
T3 construct: full-length (1938 residues); N-terminal GST cleaved by TEV, C-terminal TwinStrepII tag kept; expressed in Sf9 insect cells
T3 sequence (Q2TAZ0 whole entry): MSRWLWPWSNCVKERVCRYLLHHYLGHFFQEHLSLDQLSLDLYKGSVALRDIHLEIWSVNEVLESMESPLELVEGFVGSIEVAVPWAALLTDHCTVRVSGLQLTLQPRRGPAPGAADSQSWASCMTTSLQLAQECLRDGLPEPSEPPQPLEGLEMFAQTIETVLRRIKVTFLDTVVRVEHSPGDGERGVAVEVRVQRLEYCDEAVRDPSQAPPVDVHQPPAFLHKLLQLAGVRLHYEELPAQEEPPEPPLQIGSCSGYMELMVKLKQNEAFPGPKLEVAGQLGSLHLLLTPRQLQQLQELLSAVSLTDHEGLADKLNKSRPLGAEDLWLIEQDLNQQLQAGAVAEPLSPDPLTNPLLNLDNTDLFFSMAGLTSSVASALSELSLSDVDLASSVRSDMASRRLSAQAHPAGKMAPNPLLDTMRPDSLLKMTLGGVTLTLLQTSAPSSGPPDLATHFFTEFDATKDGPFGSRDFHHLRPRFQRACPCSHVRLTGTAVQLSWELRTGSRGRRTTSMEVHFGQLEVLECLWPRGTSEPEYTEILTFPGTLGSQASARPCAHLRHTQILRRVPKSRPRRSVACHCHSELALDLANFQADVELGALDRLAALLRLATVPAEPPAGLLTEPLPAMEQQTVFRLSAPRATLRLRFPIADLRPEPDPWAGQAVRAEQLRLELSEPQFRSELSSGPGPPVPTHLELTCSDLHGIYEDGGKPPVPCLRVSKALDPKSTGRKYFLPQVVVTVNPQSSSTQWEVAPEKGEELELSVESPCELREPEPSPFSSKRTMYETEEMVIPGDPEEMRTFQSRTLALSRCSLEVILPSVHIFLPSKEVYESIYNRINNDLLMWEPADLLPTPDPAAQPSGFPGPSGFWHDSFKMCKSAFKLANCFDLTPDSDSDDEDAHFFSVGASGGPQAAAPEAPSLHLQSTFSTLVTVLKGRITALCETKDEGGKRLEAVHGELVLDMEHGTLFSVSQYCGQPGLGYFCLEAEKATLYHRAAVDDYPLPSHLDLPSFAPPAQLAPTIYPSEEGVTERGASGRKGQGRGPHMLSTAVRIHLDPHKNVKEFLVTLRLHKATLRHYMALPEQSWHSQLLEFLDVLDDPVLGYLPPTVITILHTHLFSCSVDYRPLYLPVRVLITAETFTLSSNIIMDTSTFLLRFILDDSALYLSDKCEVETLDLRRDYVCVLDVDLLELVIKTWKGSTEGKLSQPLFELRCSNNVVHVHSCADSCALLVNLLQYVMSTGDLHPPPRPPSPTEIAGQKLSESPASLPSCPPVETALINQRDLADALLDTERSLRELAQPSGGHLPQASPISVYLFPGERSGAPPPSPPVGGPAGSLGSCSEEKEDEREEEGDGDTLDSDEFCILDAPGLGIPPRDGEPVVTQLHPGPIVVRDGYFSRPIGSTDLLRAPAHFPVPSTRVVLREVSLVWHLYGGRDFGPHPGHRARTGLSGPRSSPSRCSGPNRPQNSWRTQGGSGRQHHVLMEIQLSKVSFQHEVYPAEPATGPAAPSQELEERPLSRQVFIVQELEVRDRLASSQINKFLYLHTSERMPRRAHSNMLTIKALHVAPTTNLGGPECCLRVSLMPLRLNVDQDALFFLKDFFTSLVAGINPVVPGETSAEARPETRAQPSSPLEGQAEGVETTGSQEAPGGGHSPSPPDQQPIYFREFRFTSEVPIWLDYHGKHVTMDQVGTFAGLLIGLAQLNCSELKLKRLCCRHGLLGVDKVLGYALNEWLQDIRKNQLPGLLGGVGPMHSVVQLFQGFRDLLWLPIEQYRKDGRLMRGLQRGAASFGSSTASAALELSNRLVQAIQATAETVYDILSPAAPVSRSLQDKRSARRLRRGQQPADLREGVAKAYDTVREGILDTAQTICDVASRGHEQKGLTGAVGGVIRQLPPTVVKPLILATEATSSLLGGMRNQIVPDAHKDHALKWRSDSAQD

SMILES: CCCCCCCC/C=C\CCCCCCCC(=O)OC[C@H](COP(=O)(O)O[C@@H]1[C@H](O)[C@H](OP(=O)(O)O)[C@@H](O)[C@H](O)[C@H]1O)OC(=O)CCCCCCC/C=C\CCCCCCCC [PI3P]
- liposome flotation, western blot (WIPI4): both WIPIs bind to membranes in a PI3P-dependent manner
- liposome flotation, western blot (WIPI1): both WIPIs bind to membranes in a PI3P-dependent manner

SMILES: CCCCCCCC/C=C\CCCCCCCC(=O)OC[C@H](COP(=O)(O)OCCNc1ccc([N+](=O)[O-])c2nonc12)OC(=O)CCCCCCC/C=C\CCCCCCCC [NBD-PE, 1,2-dioleoyl-sn-glycero-3-phosphoethanolamine-N-(7-nitro-2–1,3-benzoxadiazol-4-yl)]
- lipid extraction from LUVs, Nycodenz flotation, native PAGE fluorescence (ATG2A): ATG2A can extract NBD-PE from membranes and dissociate from the membrane with those lipids attached
